This note sets out measurements from ChEMBL document CHEMBL1764959, “Design, synthesis, and structure-activity relationship studies of thiophene-3-carboxamide derivatives as dual inhibitors of the c-Jun N-terminal kinase” (Bioorg Med Chem, 2011).

Each structure is given as a SMILES string.

As usually defined, the IC50 is the concentration that gives 50% inhibition. A lower IC50 goes with greater potency in that assay.

The target in one series is Mitogen-activated protein kinase 8 (Homo sapiens, UniProt P45983). Put plainly: Inhibition of JNK1 by TR-FRET assay.
Sequence of Mitogen-activated protein kinase 8 (P45983 whole entry): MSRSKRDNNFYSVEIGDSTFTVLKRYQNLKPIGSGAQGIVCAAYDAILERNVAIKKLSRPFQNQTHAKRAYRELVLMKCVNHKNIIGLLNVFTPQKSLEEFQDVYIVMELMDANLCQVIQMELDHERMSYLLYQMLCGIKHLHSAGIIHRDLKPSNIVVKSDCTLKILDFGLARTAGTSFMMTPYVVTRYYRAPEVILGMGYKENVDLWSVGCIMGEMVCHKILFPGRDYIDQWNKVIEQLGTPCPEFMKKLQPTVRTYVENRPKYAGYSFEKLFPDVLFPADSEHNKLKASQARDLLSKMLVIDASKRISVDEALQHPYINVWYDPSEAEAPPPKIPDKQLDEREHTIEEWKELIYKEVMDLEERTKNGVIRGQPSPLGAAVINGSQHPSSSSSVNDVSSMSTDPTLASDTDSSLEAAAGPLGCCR
Settings: not given
(In general: In TR-FRET formats the signal depends on donor and acceptor labels being close together.)
As for `NC(=O)c1ccsc1NC(=O)Cc1ccc(F)c(F)c1`, 10.2 µM corresponded to half-maximal inhibition (IC50).
On the same count and under the same terms, for `NC(=O)c1ccsc1NC(=O)Cc1ccccc1F` the value was 8.3 µM; for `Cc1cc(C(N)=O)c(NC(=O)Cc2cccc3ccccc23)s1`, more than 25 µM; for `NC(=O)c1ccsc1NC(=O)Cc1ccc2ccc3cccc4ccc1c2c34`, more than 50 µM.
The same measure, in the same setting: for `NC(=O)c1ccsc1NC(=O)Cc1ccccc1` the value was 3.6 µM; for `NC(=O)c1ccsc1NC(=O)Cc1nc2ccccc2[nH]1`, more than 25 µM; for `NC(=O)c1ccsc1NC(=O)Cc1ccc2ccccc2c1`, more than 25 µM.
Still for that read-out and setting: for `NC(=O)c1ccsc1NC(=O)Cc1c[nH]c2ccccc12` the value was 9.4 µM; for `NC(=O)c1ccsc1NC(=O)Cc1cc(F)cc(F)c1`, 8.2 µM; for `NC(=O)c1ccsc1NC(=O)CN1CCN(Cc2ccco2)CC1`, 7.6 µM.
In turn, `NC(=O)c1ccsc1NC(=O)Cc1ccc(OC(F)(F)F)cc1` gave an IC50 of 5.8 µM.
Consider `NC(=O)c1ccsc1NC(=O)CCc1ccccc1`, for which the half-inhibitory concentration (IC50) was more than 100 µM.
Same read-out and setting: the same measure for `NC(=O)c1ccsc1NC(=O)CN1CCN(S(=O)(=O)c2ccccc2C(F)(F)F)CC1`: 75.1 µM.
For the compound `N#Cc1ccc(CC(=O)Nc2sccc2C(N)=O)cc1`, the half-inhibitory concentration (IC50) was found to be 3.4 µM.
The same measure, in the same setting: the same measure for `Cc1cnc2sc(CC(=O)Nc3sccc3C(N)=O)cn12`: 2.5 µM; for `COc1ccc(CC(=O)Nc2sccc2C(N)=O)cc1OC`: more than 25 µM.
Compound `NC(=O)c1ccsc1NC(=O)Cc1coc2ccccc12` came in with an IC50 of more than 25 µM.
On the same count and under the same terms, for `CC(C)c1ccc(CC(=O)Nc2sccc2C(N)=O)cc1` the value was more than 25 µM.
Still for that read-out and setting: the same measure for `N#Cc1ccsc1NC(=O)Cc1cccc2ccccc12`: more than 100 µM.
`NC(=O)c1ccsc1NC(=O)Cc1ccc(C(F)(F)F)cc1` had an IC50 of 6.4 µM.
Still for that read-out and setting: for `NC(=O)c1ccsc1NC(=O)Cc1ccccc1I` the value was 3.4 µM; for `NC(=O)c1ccsc1NC(=O)Cc1ccc2c(c1)CCCC2`, 3.6 µM.
The same measure, in the same setting: the same measure for `NC(=O)c1ccsc1NC(=O)CN1CCOCC1`: more than 50 µM; for `CC1CN(CC(=O)Nc2sccc2C(N)=O)CC(C)O1` (stereo unspecified): 65.3 µM; for `NC(=O)c1ccsc1NC(=O)Cc1csc2nc(-c3cccs3)cn12`: 2.5 µM.
The same measure, in the same setting: for `O=C(Cc1cccc2ccccc12)Nc1sccc1C(=O)O` the value was more than 100 µM.
Consider `NC(=O)c1ccsc1NC(=O)Cc1cccc(C(F)(F)F)c1`, for which the IC50 was 7.6 µM.
In the case of `NC(=O)c1ccsc1NC(=O)Cc1ccc(Cl)cc1`, the IC50 turned out to be 18.7 µM.
The same measure, in the same setting: for `NC(=O)c1ccsc1NC(=O)Cc1ccc(-c2ccccc2)cc1` the value was more than 50 µM.
Consider `COc1ccccc1CC(=O)Nc1sccc1C(N)=O`, for which the IC50 stood at 11.9 µM.
Compound `NC(=O)c1ccsc1NC(=O)CN1CCN(C(=O)C2CC2)CC1` had an IC50 of 83.5 µM.
`Cc1cc(C)cc(CC(=O)Nc2sccc2C(N)=O)c1` had an IC50 of 2.7 µM.
For the compound `CCOc1ccc(CC(=O)Nc2sccc2C(N)=O)cc1`, the half-maximal inhibitory concentration (IC50) was determined as 1.9 µM.
The same measure, in the same setting: the same measure for `NC(=O)c1ccsc1NC(=O)Cc1csc(-c2ccccc2)n1`: more than 25 µM; for `NC(=O)c1ccsc1NC(=O)Cc1cccc(F)c1`: 9.4 µM.
Compound `NC(=O)c1ccsc1NC(=O)Cc1ccccc1Br` returned an IC50 of 2.9 µM.
The same measure, in the same setting: for `NC(=O)c1ccsc1NC(=O)Cc1cc(Cl)c2c(c1)OCCCO2` the value was 1.9 µM; for `NC(=O)c1ccsc1NC(=O)Cc1cccc([N+](=O)[O-])c1`, more than 25 µM; for `COc1ccc(CC(=O)Nc2sccc2C(N)=O)cc1`, 5.7 µM.
Same read-out and setting: for `NC(=O)c1ccsc1NC(=O)Cc1ccc([N+](=O)[O-])cc1` the value was 2.9 µM; for `NC(=O)c1ccsc1NC(=O)Cc1c(F)cccc1Cl`, 12.5 µM; for `NC(=O)c1ccsc1NC(=O)Cc1cccc(Br)c1`, 1.8 µM.
The same measure, in the same setting: for `NC(=O)c1ccsc1NC(=O)/C=C/c1ccccc1` the value was more than 100 µM.
`Cc1ccccc1CC(=O)Nc1sccc1C(N)=O`: inhibition was half-maximal at 6 µM (IC50).
Compound `COc1cc(CC(=O)Nc2sccc2C(N)=O)cc(OC)c1` returned a concentration for half-maximal inhibition (IC50) of 3.1 µM.
In the case of `COc1ccc2cc(Br)ccc2c1CC(=O)Nc1sccc1C(N)=O`, the IC50 was more than 25 µM.
Same read-out and setting: for `CC(C)Cc1ccc(CC(=O)Nc2sccc2C(N)=O)cc1` the value was more than 25 µM; for `NC(=O)c1ccsc1NC(=O)Cc1ccccc1Cl`, 1.4 µM; for `NC(=O)c1ccsc1NC(=O)Cc1ccc2c(c1)OCO2`, 1.8 µM.
Same read-out and setting: the same measure for `NC(=O)c1ccsc1NC(=O)Cc1c(F)c(F)c(F)c(F)c1F`: more than 50 µM; for `NC(=O)c1ccsc1NC(=O)Cc1cc(F)cc2c1OCOC2`: 4.9 µM.
The same measure, in the same setting: the same measure for `NC(=O)c1ccsc1NC(=O)Cc1nc(-c2cccs2)cs1`: more than 25 µM.
`NC(=O)c1ccc(NC(=O)Cc2cccc3ccccc23)s1` registered an IC50 of more than 100 µM.
Same read-out and setting: for `COC(=O)c1ccsc1NC(=O)Cc1cccc2ccccc12` the value was more than 100 µM; for `NC(=O)c1ccsc1NC(=O)Cc1ccc(F)cc1`, 5.1 µM.
The same measure, in the same setting: for `NC(=O)c1ccsc1NC(=O)Cc1cccc(I)c1` the value was 1.8 µM.
For the compound `N#Cc1cccc(CC(=O)Nc2sccc2C(N)=O)c1`, half-maximal inhibition (IC50) required 20.9 µM.
Same read-out and setting: for `Cc1ccc(CC(=O)Nc2sccc2C(N)=O)cc1` the value was 4.3 µM; for `Cc1csc(NC(=O)Cc2cccc3ccccc23)c1C(N)=O`, more than 25 µM.
In the case of `Cc1sc(NC(=O)Cc2cccc3ccccc23)c(C(N)=O)c1C`, inhibition was half-maximal at 26 µM (IC50).
On to `COc1cccc(CC(=O)Nc2sccc2C(N)=O)c1`, for which the midpoint of inhibition, the IC50, lay at 2.6 µM.
Still for that read-out and setting: the same measure for `NC(=O)c1ccccc1NC(=O)Cc1cccc2ccccc12`: more than 100 µM.
The same measure, in the same setting: for `NC(=O)c1ccsc1NC(=O)Cc1c(F)cccc1F` the value was 7.4 µM; for `NC(=O)c1ccsc1NC(=O)Cc1cccnc1`, 8.1 µM.
Same read-out and setting: the same measure for `NC(=O)c1ccsc1NC(=O)c1ccccc1`: 5.9 µM; for `NC(=O)c1ccsc1NC(=O)Cc1ccc2c(c1)CCC2`: 2.5 µM.
On to `NC(=O)c1ccsc1NC(=O)Cc1cccc(Cl)c1`, for which the IC50 worked out at 2.6 µM.
Same read-out and setting: the same measure for `NC(=O)c1ccsc1NC(=O)Cc1ccc(F)cc1F`: 9.7 µM; for `Cc1cccc(CC(=O)Nc2sccc2C(N)=O)c1`: 5.4 µM; for `NC(=O)c1ccsc1NC(=O)Cc1cc(F)ccc1F`: 5.8 µM.
On to `COc1ccc2c(CC(=O)Nc3sccc3C(N)=O)c(Br)ccc2c1`, for which the IC50 was more than 25 µM.
On the same count and under the same terms, the same measure for `NC(=O)c1ccsc1NC(=O)Cc1ccc(Br)cc1`: more than 25 µM.

The test system of the next series is Liver microsomes. Put plainly: Half life in rat liver microsomes by LC/MS analysis. In kind it is ADME, Microsome.
Settings: not given
In turn, `NC(=O)c1ccsc1NC(=O)Cc1cccc(Br)c1` had a t1/2 of 24 min.
The same measure, in the same setting: the same measure for `NC(=O)c1ccsc1NC(=O)Cc1ccccc1Cl`: 27 min.

The next series deals with Plasma. Put plainly: Metabolic stability in rat plasma after 60 mins by LC/MS analysis. In kind it is ADME, cell-free. Conditions: 1 h.
For `NC(=O)c1ccsc1NC(=O)Cc1cccc(Br)c1`, the Stability result is recorded as “Stable”.
Same read-out and setting: for `NC(=O)c1ccsc1NC(=O)Cc1ccccc1Cl` the value was “Stable”.
